11 molecules from patent US5599791A, “Amides of antibiotic GE 2270 factors” (Gruppo Lepetit SPA, priority 1991, dated 1997) can be followed below.

For assay [1], the system named is Esch. coli L47 SKF 12140. In words: MIC, microbroth dilution. The assay is classed as cell-based, Escherichia coli. As to conditions: inocula 10^4 to 10^5 CFU/ml, Iso-Sensitest broth, 18-24 h, 37° C. How it is done: (§1) MIC for Propionibacterium aches, and Bacteroides fragilis are determined by agar dilution (inocula 10^4 /10^5 CFU/spot). MIC for other organisms are determined by microbroth dilution (inocula 10^4 to 10^5 CFU/ml). Incubation times are 18-24 h, except for Haemophilus influenzae, P. acnes, B. fragilis (48 h). All organisms are incubated at 37° C.; H. influenzae is incubated in a 5% CO2 atmosphere, anaerobes in an anaerobic gas mixture. Media used are: Iso-Sensitest broth (Oxoid) (Staphylococci, Streptococcus faecalis, Escherichia coli, Proteus vulgaris; brain heart infusion broth (Difco)+1% Supplement C (Difco) (H. influenzae); The minimal inhibitory concentrations (MIC, microgram/ml) for some microorganisms are reported below in Table VII.

The test system of assay [2] is Prot. vulgaris ATCC 881. Nature of the assay: MIC, microbroth dilution. It counts as cell-based, Proteus vulgaris. The settings on record: inocula 10^4 to 10^5 CFU/ml, Iso-Sensitest broth, 18-24 h, 37° C. As to the method: as §1
(In general: In broth dilution the organism is exposed to a series of concentrations in liquid medium.)

Assay [3] concerns Strep. faecalis L149 ATCC 7080. Nature of the assay: MIC, microbroth dilution. It counts as cell-based, Streptococcus faecalis. The settings on record: inocula 10^4 to 10^5 CFU/ml, Iso-Sensitest broth, 18-24 h, 37° C. How it is done: as §1
In assay [4] the test system is Prop. acnes L1014 ATCC 6919. Nature of the assay: MIC, agar dilution. It counts as cell-based, P. acnes. The settings on record: inocula 10^4 /10^5 CFU/spot, 48 h, 37° C., anaerobic gas mixture. How it is done:
as §1

The subject of assay [5] is Bact. fragilis L1010 ATCC 23745. Nature of the assay: MIC, agar dilution. It counts as cell-based, Bacteroides fragilis. The settings on record: inocula 10^4 /10^5 CFU/spot, 48 h, 37° C., anaerobic gas mixture. As to the method: as §1
Background: In agar dilution, organisms are placed on agar that contains the substance at set levels.

In assay [6] the test system is Staph. aureus L165 Tour. Nature of the assay: MIC, microbroth dilution. The assay is classed as cell-based. As to conditions: inocula 10^4 to 10^5 CFU/ml, Iso-Sensitest broth, 18-24 h, 37° C. How it is done: as §1
For assay [7], the system named is Haemophilus Influenzae type B. Nature of the assay: MIC, microbroth dilution. The assay is classed as cell-based. The settings on record: brain heart infusion broth +1% Supplement C, 48 h, 37° C., 5% CO2. How it is done: as §1
In assay [8] the test system is Staph. epidermidis L147 ATCC 12228. Nature of the assay: MIC, microbroth dilution. The assay is classed as cell-based. The settings on record: inocula 10^4 to 10^5 CFU/ml, Iso-Sensitest broth, 18-24 h, 37° C. As to the method: as §1
Assay [9] concerns Staph. haemolyticus L602. Nature of the assay: MIC, microbroth dilution. The settings on record: inocula 10^4 to 10^5 CFU/ml, Iso-Sensitest broth, 18-24 h, 37° C. The assay is classed as cell-based. How it is done: as §1
The test system of assay [10] is Strep. pneumoniae L44 UC41. In words: MIC, microbroth dilution. The assay is classed as cell-based. The settings on record: inocula 10^4 to 10^5 CFU/ml, 18-24 h, 37° C. As to the method: as §1

Consider `CNC(=O)CC1NC(=O)c2nc(sc2COC)C(C(C)C)NC(=O)c2csc(n2)-c2ccc(-c3nc(C(=O)NC(CCCN)C(=O)O)cs3)nc2-c2csc(n2)-c2csc(n2)C(C(O)c2ccccc2)NC(=O)CNC(=O)c2nc1sc2C.O=C(O)C(F)(F)F` (stereo not shown) [Compound 2], for which the MIC in assay [1] is recorded as greater than 128 microgram/ml; in assay [2], greater than 128 microgram/ml; in [3] it was 0.06 microgram/ml; in [4] it was 0.06 microgram/ml; in assay [5] it was greater than 128 microgram/ml; in assay [6] it was 0.13 microgram/ml. Besides, the MIC is reported as greater than 128 microgram/ml in assay [7], 0.25 microgram/ml in assay [8], 16 microgram/ml in assay [9] and greater than 128 microgram/ml in assay [10].

Consider `CNC(=O)CC1NC(=O)c2nc(sc2COC)C(C(C)C)NC(=O)c2csc(n2)-c2ccc(-c3nc(C(=O)NC(Cc4ccccc4)C(=O)O)cs3)nc2-c2csc(n2)-c2csc(n2)C(C(O)c2ccccc2)NC(=O)CNC(=O)c2nc1sc2C` (stereo not shown) [Compound 7], for which the MIC is greater than 128 microgram/ml in assay [1]; greater than 128 microgram/ml in assay [2]; greater than 0.13 microgram/ml in assay [3]; less than 0.13 microgram/ml in assay [4]; greater than 128 microgram/ml in [5]; 0.25 microgram/ml in [6]. The MIC was 128 microgram/ml in assay [7], 0.5 microgram/ml in [8], 4 microgram/ml in assay [9] and 4 microgram/ml in assay [10].

Consider `CNC(=O)CC1NC(=O)c2nc(sc2COC)C(C(C)C)NC(=O)c2csc(n2)-c2ccc(-c3nc(C(=O)NCCNCCC(=O)O)cs3)nc2-c2csc(n2)-c2csc(n2)C(C(O)c2ccccc2)NC(=O)CNC(=O)c2nc1sc2C` (stereo not shown) [Compound 38], for which the MIC is greater than 128 microgram/ml in assay [1]; greater than 128 microgram/ml in assay [2]; 16 microgram/ml in [3]; 0.25 microgram/ml in assay [4]; greater than 128 microgram/ml in [5]; 32 microgram/ml in assay [6]. The MIC was greater than 128 microgram/ml in assay [7], 32 microgram/ml in assay [8], 64 microgram/ml in assay [9] and greater than 128 microgram/ml in [10].

Regarding `CNC(=O)CC1NC(=O)c2nc(sc2COC)C(C(C)C)NC(=O)c2csc(n2)-c2ccc(-c3nc(C(=O)NCCCCCC(=O)O)cs3)nc2-c2csc(n2)-c2csc(n2)C(C(O)c2ccccc2)NC(=O)CNC(=O)c2nc1sc2CO` (stereo not shown) [Compound 42], the MIC in [1] is greater than 128 microgram/ml; in assay [2], greater than 128 microgram/ml; in assay [3], 0.13 microgram/ml; in [4] it was 0.016 microgram/ml; in [5], greater than 128 microgram/ml; in assay [6], 0,13 microgram/ml. The MIC in assay [7] is listed as 4 microgram/ml; in assay [8], 0,13 microgram/ml; in assay [9], 0.5 microgram/ml; in [10] it was 1 microgram/ml.

For the molecule `Cc1sc2nc1C(=O)NCC(=O)NC(C(O)c1ccccc1)c1nc(cs1)-c1nc(cs1)-c1nc(-c3nc(C(=O)NCCCCCC(=O)O)cs3)ccc1-c1nc(cs1)C(=O)NC(C(C)C)c1nc(cs1)C(=O)NC2CC(N)=O` (stereo not shown) [Compound 43], the MIC was greater than 128 microgram/ml in [1]; greater than 128 microgram/ml in [2]; 0.13 microgram/ml in assay [3]; 0.016 microgram/ml in assay [4]; greater than 128 microgram/ml in [5]; 0.13 microgram/ml in assay [6]. Further, the MIC in assay [7] was greater than 128 microgram/ml; in assay [8], 0.5 microgram/ml; in assay [9] it was 0.5 microgram/ml; in assay [10], 0.5 microgram/ml.

In the case of `CNC(=O)CC1NC(=O)c2nc(sc2COC)C(C(C)C)NC(=O)c2csc(n2)-c2ccc(-c3nc(C(=O)NCC(=O)O)cs3)nc2-c2csc(n2)-c2csc(n2)C(C(O)c2ccccc2)NC(=O)CNC(=O)c2nc1sc2C` (stereo not shown) [Compound 1], the MIC in assay [1] was greater than 128 microgram/ml; in [2], greater than 128 microgram/ml; in [3] it was 0.25 microgram/ml; in assay [4], less than 0.13 microgram/ml; in assay [5] it was 8 microgram/ml; in assay [6], 0.5 microgram/ml. Also, the MIC came to 8 microgram/ml in assay [7], 1 microgram/ml in assay [8], 4 microgram/ml in assay [9] and 8 microgram/ml in assay [10].

For `CNC(=O)CC1NC(=O)c2nc(sc2COC)C(C(C)C)NC(=O)c2csc(n2)-c2ccc(-c3nc(C(=O)NC(CC(C)C)C(=O)O)cs3)nc2-c2csc(n2)-c2csc(n2)C(C(O)c2ccccc2)NC(=O)CNC(=O)c2nc1sc2C` (stereo not shown) [Compound 6], the MIC in [1] is on record as greater than 128 microgram/ml; in assay [2], greater than 128 microgram/ml; in assay [3] it was less than 0.13 microgram/ml; in assay [4], less than 0.13 microgram/ml; in assay [5], greater than 128 microgram/ml; in assay [6], less than 0.13 microgram/ml. For the same molecule, the MIC was determined as 32 microgram/ml in assay [7], 1 microgram/ml in assay [8], 1 microgram/ml in assay [9] and 2 microgram/ml in assay [10].

`CNC(=O)CC1NC(=O)c2nc(sc2COC)C(C(C)C)NC(=O)c2csc(n2)-c2ccc(-c3nc(C(=O)NCCOCCC(=O)O)cs3)nc2-c2csc(n2)-c2csc(n2)C(C(O)c2ccccc2)NC(=O)CNC(=O)c2nc1sc2C` (stereo not shown) [Compound 41]: the MIC is listed as greater than 128 microgram/ml in assay [1]; greater than 128 microgram/ml in assay [2]; no more than 0.13 microgram/ml in [3]; no more than 0.13 microgram/ml in assay [4]; 4 microgram/ml in assay [5]; 0.25 microgram/ml in [6]. The MIC in [7] turned out to be 1 microgram/ml; in assay [8], 0.5 microgram/ml; in [9] it was 1 microgram/ml; in assay [10], 2 microgram/ml.

For the molecule `CNC(=O)CC1NC(=O)c2nc(sc2COC)C(C(C)C)NC(=O)c2csc(n2)-c2ccc(-c3nc(C(N)=O)cs3)nc2-c2csc(n2)-c2csc(n2)C(C(O)c2ccccc2)NC(=O)CNC(=O)c2nc1sc2C` (stereo not shown) [Compound 35], the MIC in assay [1] is recorded as greater than 128 microgram/ml; in assay [2], greater than 128 microgram/ml; in assay [3], 0.06 microgram/ml; in assay [4], 0.004 microgram/ml; in assay [5], greater than 128 microgram/ml; in assay [6], 0.13 microgram/ml. In addition, the MIC in assay [7] was greater than 128 microgram/ml; in [8], 0.13 microgram/ml; in assay [9] it was 0.5 microgram/ml; in assay [10] it was greater than 128 microgram/ml.

With `CNC(=O)CC1NC(=O)c2nc(sc2COC)C(C(C)C)NC(=O)c2csc(n2)-c2ccc(-c3nc(C(=O)NCCN(C)C)cs3)nc2-c2csc(n2)-c2csc(n2)C(C(O)c2ccccc2)NC(=O)CNC(=O)c2nc1sc2C` (stereo not shown) [Compound 32], the MIC is on record as greater than 128 microgram/ml in assay [1]; greater than 128 microgram/ml in [2]; 0.25 microgram/ml in [3]; 0.13 microgram/ml in assay [4]; greater than 128 microgram/ml in assay [5]; 0.5 microgram/ml in assay [6]. Also, the MIC is recorded as greater than 128 microgram/ml in assay [7], 0.5 microgram/ml in assay [8], 0.5 microgram/ml in [9] and 1 microgram/ml in assay [10].

Regarding `CNC(=O)CC1NC(=O)c2nc(sc2COC)C(C(C)C)NC(=O)c2csc(n2)-c2ccc(-c3nc(C(=O)NCCCC=CC(=O)O)cs3)nc2-c2csc(n2)-c2csc(n2)C(C(O)c2ccccc2)NC(=O)CNC(=O)c2nc1sc2C` (stereo not shown) [Compound 40], the MIC was greater than 128 microgram/ml in assay [1]; greater than 128 microgram/ml in assay [2]; no more than 0.13 microgram/ml in [3]; 4 microgram/ml in assay [5]; 0.25 microgram/ml in assay [6]; 1 microgram/ml in assay [7]. Besides, the MIC in assay [8] was 0.25 microgram/ml; in assay [9], 1 microgram/ml; in assay [10], 1 microgram/ml.
